Where two headings read alike, the source gives them in different places.
What was measured:
Type in all cases: cell-based
[1] = tested on: HT29; assay: NCI in vitro cytotoxicity (SRB, 48 h), Colon panel; conditions: Homo sapiens, HT-29, 48 h exposure
[2] = tested on: SK-OV-3; assay: NCI in vitro cytotoxicity (SRB, 48 h), Ovarian panel; conditions: Homo sapiens; SK-OV-3, Ovarian; 48 h exposure
[3] = tested on: LOX IMVI; assay: NCI in vitro cytotoxicity (SRB, 48 h), Melanoma panel; conditions: Homo sapiens, 48 h exposure
[4] = tested on: UACC-62; assay: as above; conditions: Homo sapiens; UACC-62, Melanoma; 48 h exposure
[5] = tested on: COLO 205; assay: NCI in vitro cytotoxicity (SRB, 48 h), Colon panel; conditions: Homo sapiens; COLO 205, Colon; 48 h exposure
[6] = tested on: Colon cancer cell lines; assay: NCI in vitro cytotoxicity, whole panel; conditions: Homo sapiens; for CC50: read-out: Log10 LC50 (converted)
[7] = tested on: MDAMB-435; assay: NCI in vitro cytotoxicity (SRB, 48 h), Melanoma panel; conditions: Homo sapiens, MDA-MB-435; MDAMB-435, Melanoma; 48 h exposure
[8] = tested on: SK-MEL-5; assay: as above; conditions: Homo sapiens; SK-MEL-5, Melanoma; 48 h exposure
[9] = tested on: CAKI-1; assay: NCI in vitro cytotoxicity (SRB, 48 h), Renal panel; conditions: Homo sapiens; CAKI-1, Renal; 48 h exposure
[10] = tested on: SF-268; assay: NCI in vitro cytotoxicity (SRB, 48 h), CNS panel; conditions: Homo sapiens; SF-268, CNS; 48 h exposure
[11] = tested on: MDA-MB-231/ATCC; assay: NCI in vitro cytotoxicity (SRB, 48 h), Breast panel; conditions: Homo sapiens; for GI50: Breast, 48 h exposure
Protocol: (§1) The imidazothiazole-chalcone hybrids 7a, 7e, 7f, 8f and 19e have been tested against sixty human tumour cell lines derived from nine cancer types (leukemia, non-small cell lung cancer, colon cancer, CNS cancer, melanoma, ovarian cancer, renal cancer, prostate cancer and breast cancer) as per NCI protocol. For each compound, dose response curves for individual cell lines have been measured at a minimum of five concentrations at 10 fold dilutions. A protocol of 48 h continuous drug exposure has been used, and a sulforhodamine B (SRB) protein assay was used to estimate cell viability or growth. The concentration for 50% cell growth inhibition (GI50), total cell growth inhibition (TGI, 0% growth) and 50% cell death (LC50, […]) compared with the control has been calculated (Table-1).

[12] = tested on: MCF7; assay: as above; conditions: Homo sapiens; for GI50: MCF7, Breast, 48 h exposure
Protocol: as §1

[13] = tested on: HCT-116; assay: NCI in vitro cytotoxicity (SRB, 48 h), Colon panel; conditions: Homo sapiens; for GI50: HCT-116, Colon, 48 h exposure
[14] = tested on: Breast cancer cell lines; assay: NCI in vitro cytotoxicity, whole panel; conditions: Homo sapiens; for GI50 / CC50: Breast, average of six to eight cell lines; for GI50: read-out: Log10 GI50 (converted); for CC50: read-out: Log10 LC50 (converted); for IC50: exposure period of at least 48 hrs, read-out: IC50, range over breast cell lines
[15] = tested on: UO-31; assay: NCI in vitro cytotoxicity (SRB, 48 h), Renal panel; conditions: Homo sapiens; UO-31, Renal; 48 h exposure
[16] = tested on: BT-549; assay: NCI in vitro cytotoxicity (SRB, 48 h), Breast panel; conditions: Homo sapiens; BT-549, Breast; 48 h exposure
[17] = tested on: RPMI-8226; assay: NCI in vitro cytotoxicity (SRB, 48 h), Leukemia panel; conditions: Homo sapiens; RPMI-8226, Leukemia; 48 h exposure
[18] = tested on: OVCAR-8; assay: NCI in vitro cytotoxicity (SRB, 48 h), Ovarian panel; conditions: Homo sapiens; OVCAR-8, Ovarian; 48 h exposure
[19] = tested on: SN12C; assay: NCI in vitro cytotoxicity (SRB, 48 h), Renal panel; conditions: Homo sapiens, 48 h exposure
[20] = tested on: Prostate cancer cell lines; assay: NCI in vitro cytotoxicity, whole panel; conditions: Homo sapiens; for LC50: read-out: Log10 LC50 (converted)
[21] = tested on: M14; assay: NCI in vitro cytotoxicity (SRB, 48 h), Melanoma panel; conditions: Homo sapiens, 48 h exposure
[22] = tested on: IGROV1; assay: NCI in vitro cytotoxicity (SRB, 48 h), Ovarian panel; conditions: Homo sapiens, IGROV-1; IGROV1, Ovarian; 48 h exposure
[23] = tested on: K-562; assay: NCI in vitro cytotoxicity (SRB, 48 h), Leukemia panel; conditions: Homo sapiens, K562; K-562, Leukemia; 48 h exposure
[24] = tested on: OVCAR-4; assay: NCI in vitro cytotoxicity (SRB, 48 h), Ovarian panel; conditions: Homo sapiens; OVCAR-4, Ovarian; 48 h exposure
[25] = tested on: SNB-75; assay: NCI in vitro cytotoxicity (SRB, 48 h), CNS panel; conditions: Homo sapiens; SNB-75, CNS; 48 h exposure
[26] = tested on: Renal cancer cell lines; assay: NCI in vitro cytotoxicity, whole panel; conditions: Homo sapiens; for CC50: read-out: Log10 LC50 (converted)
[27] = tested on: PC-3; assay: NCI in vitro cytotoxicity (SRB, 48 h), Prostate panel; conditions: Homo sapiens; PC-3, Prostate; 48 h exposure
[28] = tested on: SNB-19; assay: NCI in vitro cytotoxicity (SRB, 48 h), CNS panel; conditions: Homo sapiens; SNB-19, CNS; 48 h exposure
[29] = tested on: NCI-H322M; assay: NCI in vitro cytotoxicity (SRB, 48 h), Non-small cell lung panel; conditions: Homo sapiens, 48 h exposure
[30] = tested on: Melanoma cell lines; assay: NCI in vitro cytotoxicity, whole panel; conditions: Homo sapiens; for CC50: read-out: Log10 LC50 (converted)
[31] = tested on: T-47D; assay: NCI in vitro cytotoxicity (SRB, 48 h), Breast panel; conditions: Homo sapiens, T47D, 48 h exposure
[32] = tested on: 786-0; assay: NCI in vitro cytotoxicity (SRB, 48 h), Renal panel; conditions: Homo sapiens; 786-0, Renal; 48 h exposure
[33] = tested on: SW-620; assay: NCI in vitro cytotoxicity (SRB, 48 h), Colon panel; conditions: Homo sapiens; SW-620, Colon; 48 h exposure
[34] = Colon, average of six to eight cell lines, read-out: Log10 GI50 (converted)
[35] = Colon, average of six to eight cell lines
[36] = exposure period of at least 48 hrs, read-out: GI50, range over colon cell lines
[37] = Prostate cell, exposure period of at least 48 hrs, read-out: GI50, range over prostate cell lines
[38] = Prostate, average of the panel's cell lines, read-out: Log10 GI50 (converted)
[39] = Prostate, average of the panel's cell lines
[40] = Renal, average of six to eight cell lines, read-out: Log10 GI50 (converted)
[41] = Renal, average of six to eight cell lines
[42] = exposure period of at least 48 hrs, read-out: GI50, range over renal cell lines
[43] = Melanoma, average of six to eight cell lines, read-out: Log10 GI50 (converted)
[44] = Melanoma, average of six to eight cell lines
[45] = exposure period of at least 48 hrs, read-out: GI50, range over melanoma cell lines

COc1ccc(C(=O)/C=C/c2c(C(F)(F)F)nc3sccn23)cc1OC [Compound 8f, (E)-1-(3,4-dimethoxyphenyl)-3-(6-(trifluoromethyl)imidazo[2,1-b]thiazol-5-yl) prop-2-en-1-one]
GI50 [1]: 2.01 µM | GI50 [2]: 3.41 µM | GI50 [3]: 0.6 µM | GI50 [4]: 4.85 µM | GI50 [5]: 4.56 µM | GI50 [6, 34]: 2.45 µM | CC50 [6, 35]: ≥ 100 µM | GI50 [6, 36]: 1.4 to 4.56 µM | GI50 [7]: 1.85 µM | GI50 [8]: 4.2 µM | GI50 [9]: 2.46 µM | GI50 [10]: 3.44 µM | GI50 [11]: 5.91 µM | IC50 ([11]; Table 4, read-out: Comparative efficacy): 0.76 µM | IC50 ([12]; MCF7, MCF-7, Table 4, read-out: Comparative efficacy): 0.76 µM | GI50 [12]: 0.76 µM | IC50 ([13]; HCT-116, HCT116, Table 4, read-out: Comparative efficacy): 1.4 µM | GI50 [13]: 1.4 µM | GI50 [14]: 2.95 µM | CC50 [14]: ≥ 100 µM | IC50 [14]: 0.76 to 6.18 µM | GI50 [15]: 8.47 µM | GI50 [16]: 3.25 µM | GI50 [17]: 1.62 µM | GI50 [18]: 2.4 µM | GI50 [19]: 2.98 µM | GI50 [20, 37]: 1.64 to 5.39 µM | GI50 [20, 38]: 2.95 µM | LC50 [20, 39]: ≥ 100 µM | GI50 [21]: 2.67 µM | GI50 [22]: 3.15 µM | GI50 [23]: 2.25 µM | GI50 [24]: 4.08 µM | GI50 [25]: 6.87 µM | GI50 [26, 40]: 4.9 µM | CC50 [26, 41]: ≥ 100 µM | GI50 [26, 42]: 2.46 to 8.76 µM | GI50 [27]: 5.39 µM | GI50 [28]: 4.25 µM | GI50 [29]: 3.17 µM | GI50 [30, 43]: 3.63 µM | CC50 [30, 44]: ≥ 100 µM | GI50 [30, 45]: 0.6 to 8.48 µM | GI50 [31]: 2.9 µM | GI50 [32]: 5.67 µM | GI50 [33]: 1.49 µM

COc1cc(C(=O)/C=C/c2c(-c3ccc(F)cc3)nc3sc(C)cn23)cc(OC)c1OC [Compound 19e, (E)-3-(6-(4-fluorophenyl)-2-methylimidazo[2,1-b]thiazol-5-yl)-1-(3,4,5-trimethoxyphenyl)prop-2-en-1-one]
GI50 [1]: 6.96 µM | GI50 [2]: 6.12 µM | GI50 [3]: 2.5 µM | GI50 [4]: 2.91 µM | GI50 [5]: 4.94 µM | GI50 [6, 34]: 5.01 µM | CC50 [6, 35]: ≥ 100 µM | GI50 [6, 36]: 2.92 to 9.93 µM | GI50 [7]: 1.75 µM | GI50 [8]: 0.51 µM | GI50 [9]: 1.78 µM | GI50 [10]: 15.2 µM | GI50 [11]: 5.38 µM | GI50 [12]: 1.81 µM | GI50 [13]: 2.92 µM | GI50 [14]: 3.63 µM | CC50 [14]: ≥ 100 µM | IC50 [14]: 1.81 to 8.29 µM | GI50 [15]: 2.95 µM | GI50 [16]: 3.75 µM | GI50 [17]: 2.32 µM | GI50 [18]: 4.94 µM | GI50 [19]: 9.01 µM | GI50 [20, 37]: 2.41 to 7.52 µM | GI50 [20, 38]: 4.27 µM | LC50 [20, 39]: ≥ 100 µM | GI50 [21]: 5.12 µM | GI50 [22]: 8.71 µM | GI50 [23]: 5.46 µM | GI50 [24]: 2.28 µM | GI50 [25]: 50.1 µM | GI50 [26, 40]: 6.31 µM | CC50 [26, 41]: ≥ 100 µM | GI50 [26, 42]: 1.78 to 28 µM | GI50 [27]: 2.41 µM | GI50 [28]: 87.8 µM | GI50 [29]: 8.65 µM | GI50 [30, 43]: 3.02 µM | CC50 [30, 44]: ≥ 100 µM | GI50 [30, 45]: 0.51 to 7.07 µM | GI50 [31]: 2.93 µM | GI50 [32]: 8.88 µM | GI50 [33]: 5.34 µM
